In US9718817B2, “Aryl and heteroaryl ether compounds as ROR gamma modulators” (Glenmark Pharmaceuticals S.A., priority 2014, dated 2017) one finds IC50 and inhibition data, which are given here for 23 molecules.

This assay concerns the target T1, GST-tagged ROR gamma ligand binding domain (LBD) (Homo sapiens, UniProt P51449).
T1 construct: purchased Invitrogen
T1 sequence (P51449 269-508 limits assumed): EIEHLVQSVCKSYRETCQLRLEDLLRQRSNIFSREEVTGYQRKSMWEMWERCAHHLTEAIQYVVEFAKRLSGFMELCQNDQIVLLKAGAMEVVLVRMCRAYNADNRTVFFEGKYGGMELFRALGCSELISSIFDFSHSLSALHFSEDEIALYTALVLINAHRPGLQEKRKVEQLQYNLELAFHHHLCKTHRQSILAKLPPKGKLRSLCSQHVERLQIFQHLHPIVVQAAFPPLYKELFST
The assay is described as follows: TR-FRET assay for ROR gamma (LanthaScreen co-activator peptide recruitment). The format is biochemical. The following applies: for IC50: class symbols, from dose response curve; for inhibition at 1 µM: compound 1 μM; for inhibition at 1 µM / inhibition at 10 µM: TR-FRET ratio 520/495, percent of control; for inhibition at 10 µM: compound 10 μM. An outline of the steps: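 Antagonist mode: 10 nM GST-RORγ LBD pre-incubated with compound 1 h at 22 °C in 25 mM HEPES pH 7.4, 100 mM NaCl, 5 mM DTT, 0.01% BSA, 4% DMSO final. Then 300 nM fluorescein-D22 co-activator peptide plus 10 nM Tb-anti-GST added, 1 h at room temperature. IC50 by nonlinear regression of the 520/495 TR-FRET ratio as percent of no-compound control.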
In general terms: In TR-FRET formats the signal depends on donor and acceptor labels being close together.

By IC50 is commonly meant the concentration needed to halve the response being measured. A word on the inhibition: it is how much of the control response was suppressed. As to `CCS(=O)(=O)c1ccc(CC(=O)Nc2ccc3c(c2)nc(C(C)(C)Oc2ccc(F)cc2F)n3CC2CC2)cc1` [Example 114, N-{1-Cyclopropylmethyl-2-[1-(2,4-difluoro-phenoxy)-1-methyl-ethyl]-1H-benzoimidazol-5-yl}-2-(4-ethanesulfonyl-phenyl)-acetamide], the IC50 is below 50 nM, the inhibition at 1 µM is 78.9% and the inhibition at 10 µM worked out at 82.6%.

`CCCn1c(C(C)(C)Oc2ccc(F)cc2F)nc2cc(NC(=O)Cc3ccc(S(=O)(=O)CC)cc3)ccc21` [Example 115, N-{2-[1-(2,4-Difluoro-phenoxy)-1-methyl-ethyl]-1-propyl-1H-benzoimidazol-5-yl}-2-(4-ethanesulfonyl-phenyl)-acetamide]: the IC50 was below 50 nM, the inhibition at 1 µM was determined as 82.4% and the inhibition at 10 µM came out at 88.3%.

In the case of `CCS(=O)(=O)c1ccc(CC(=O)Nc2ccc3c(c2)nc(C(C)(C)Oc2ccc(F)cc2F)n3CC(C)C)cc1` [Example 116, N-{2-[1-(2,4-Difluoro-phenoxy)-1-methyl-ethyl]-1-isobutyl-1H-benzoimidazol-5-yl}-2-(4-ethanesulfonyl-phenyl)-acetamide], the IC50 was above 100 nM, the inhibition at 1 µM came out at 79.1% and the inhibition at 10 µM amounted to 84.5%.

As for `CCS(=O)(=O)c1ccc(CC(=O)Nc2ccc3c(c2)nc(C(C)(C)Oc2ccc(F)cc2F)n3C(C)C)cc1` [Example 117, N-{2-[1-(2,4-Difluoro-phenoxy)-1-methyl-ethyl]-1-isopropyl-1H-benzoimidazol-5-yl}-2-(4-ethanesulfonyl-phenyl)-acetamide], the IC50 was above 100 nM, the inhibition at 1 µM amounted to 82.7% and the inhibition at 10 µM is 86.7%.

With `CCn1c(C(F)(F)Oc2ccc(F)cc2F)nc2cc(NC(=O)Cc3ccc(S(=O)(=O)CC)cc3)ccc21` [Example 118, N-{2-[(2,4-Difluoro-phenoxy)-difluoromethyl]-1-ethyl-1H-benzoimidazol-5-yl}-2-(4-ethanesulfonyl-phenyl)-acetamide], the inhibition at 1 µM came out at 5.43% and the inhibition at 10 µM worked out at 9.14%.

For the molecule `CCS(=O)(=O)c1ccc(CC(=O)Nc2ccc(OC3(c4ccc(Cl)c(F)c4)CCC3)c(F)c2)cc1` [Example 119, N-{4-[1-(4-Chloro-3-fluorophenyl)-cyclobutoxy]-3-fluoro-phenyl}-2-(4-ethanesulfonyl-phenyl)-acetamide], the IC50 was below 50 nM, the inhibition at 1 µM came to 84.9% and the inhibition at 10 µM is 84.5%.

As for `CCS(=O)(=O)c1ccc(CC(=O)Nc2ccc(OC3(c4ccc(Cl)c(F)c4)CCCC3)cc2)cc1` [Example 120, N-{4-[1-(4-Chloro-3-fluorophenyl)-cyclopentyloxy]-phenyl}-2-(4-ethanesulfonyl-phenyl)-acetamide], the IC50 is below 50 nM, the inhibition at 1 µM stood at 84.8% and the inhibition at 10 µM worked out at 89.6%.

For `CCS(=O)(=O)c1ccc(CC(=O)Nc2ccc(OC3(c4ccc(Cl)c(F)c4)CCCC3)c(F)c2)cc1` [Example 121, N-{4-[1-(4-Chloro-3-fluorophenyl)-cyclopentyloxy]-3-fluorophenyl}-2-(4-ethanesulfonyl-phenyl)-acetamide], the IC50 is below 50 nM, the inhibition at 1 µM stood at 86.8% and the inhibition at 10 µM was found to be 90.2%.

Turning to `CCS(=O)(=O)c1ccc(CC(=O)Nc2ccc(OC3(c4ccc(Cl)c(F)c4)CCCCC3)c(F)c2)cc1` [Example 122, N-{4-[1-(4-Chloro-3-fluorophenyl)-cyclohexyloxy]-3-fluorophenyl}-2-(4-ethanesulfonyl-phenyl)-acetamide], the IC50 is below 50 nM, the inhibition at 1 µM is 77.3% and the inhibition at 10 µM is 81.2%.

Regarding `CCS(=O)(=O)c1ccc(CC(=O)Nc2ccc(OC3(c4ccc(Cl)cc4Cl)CCCC3)cc2)cc1` [Example 123, N-{4-[1-(2,4-Dichlorophenyl)-cyclopentyloxy]-phenyl}-2-(4-ethanesulfonyl-phenyl)-acetamide], the IC50 is below 50 nM, the inhibition at 1 µM is 82% and the inhibition at 10 µM was 87.2%.

As for `CCS(=O)(=O)c1ccc(CC(=O)Nc2ccc(OC3(c4ccc(Cl)c(F)c4)CCCCC3)cc2)cc1` [Example 124, N-{4-[1-(4-Chloro-3-fluorophenyl)-cyclohexyloxy]-phenyl}-2-(4-ethanesulfonyl-phenyl)-acetamide], the IC50 was below 50 nM, the inhibition at 1 µM worked out at 82.2% and the inhibition at 10 µM is 84.8%.

On to `CCS(=O)(=O)c1ccc(CC(=O)Nc2ccc3c(c2)nc(C(C)(C)Oc2ccc(F)cc2F)n3C2CC2)cc1` [Example 125, N-{1-Cyclopropyl-2-[1-(2,4-difluorophenoxy)-1-methylethyl]-1H-benzoimidazol-5-yl}-2-(4-ethanesulfonyl-phenyl)-acetamide], for which the IC50 is below 50 nM, the inhibition at 1 µM stood at 89.2% and the inhibition at 10 µM amounted to 90.4%.

Take `CCn1c(C(C)(C)Oc2cc(F)ccc2F)nc2cc(NC(=O)Cc3ccc(S(=O)(=O)CC)cc3)ccc21` [Example 126, N-{2-[1-(2,5-Difluorophenoxy)-1-methylethyl]-1-ethyl-1H-benzoimidazol-5-yl}-2-(4-ethanesulfonylphenyl)-acetamide]: the IC50 is below 50 nM, the inhibition at 1 µM was 85.9% and the inhibition at 10 µM turned out to be 89.5%.

Regarding `CCN(C(=O)C(C)(C)Oc1ccc(NC(=O)Cc2ccc(S(=O)(=O)CC)cc2)cc1)c1ccc(Cl)cc1` [Example 127, N-(4-Chlorophenyl)-2-{4-[2-(4-ethanesulfonylphenyl)acetylamino]-phenoxy}-N-ethyl-2-methylpropionamide], the inhibition at 1 µM was 68% and the inhibition at 10 µM is 75.8%.

In the case of `CCS(=O)(=O)c1ccc(CC(=O)Nc2ccc(OC(C)(C)C(=O)N(C)c3ccc(Cl)cc3)cc2)cc1` [Example 128, N-(4-Chlorophenyl)-2-{4-[2-(4-ethanesulfonylphenyl)acetylamino]-phenoxy}-2-N-dimethylpropionamide], the inhibition at 1 µM was 64.2% and the inhibition at 10 µM was 79.8%.

On to `CCN(C(=O)C(C)(C)Oc1ccc(NC(=O)Cc2ccc(S(=O)(=O)CC)cc2)cc1)c1ccc(Cl)cc1Cl` [Example 129, N-(2,4-Dichlorophenyl)-N-ethyl-2-(4-(2-(4-(ethylsulfonyl)phenyl)acetamido)phenoxy)-2-methylpropanamide], for which the inhibition at 1 µM amounted to 2.49% and the inhibition at 10 µM is 8.35%.

On to `CCN(C(=O)C(C)(C)Oc1ccc(NC(=O)Cc2ccc(S(=O)(=O)CC)cc2)cc1)c1ccc(Cl)c(F)c1` [Example 130, N-(4-Chloro-3-fluorophenyl)-N-ethyl-2-(4-(2-(4-(ethylsulfonyl)phenyl)acetamido)phenoxy)-2-methylpropanamide], for which the IC50 was above 100 nM, the inhibition at 1 µM came to 73% and the inhibition at 10 µM was determined as 85.2%.

`CCN(C(=O)C(C)(C)Oc1ccc(NC(=O)Cc2ccc(S(=O)(=O)CC)cc2)cc1F)c1ccc(Cl)c(F)c1` [Example 131, N-(4-Chloro-3-fluorophenyl)-N-ethyl-2-(4-(2-(4-(ethylsulfonyl)phenyl)acetamido)-2-fluorophenoxy)-2-methylpropanamide]: the concentration for half-maximal inhibition (IC50) lay within 50 to 100 nM, the inhibition at 1 µM was 69.8% and the inhibition at 10 µM is 72.9%.

Turning to `CCN(C(=O)C(C)(C)Oc1ccc(F)cc1F)c1ccc(NC(=O)Cc2ccc(S(=O)(=O)CC)cc2)cc1` [Example 132, 2-(2,4-Difluorophenoxy)-N-ethyl-N-(4-(2-(4-(ethylsulfonyl)phenyl)acetamido)phenyl)-2-methylpropanamide], the inhibition at 1 µM amounted to 52.9% and the inhibition at 10 µM amounted to 60.9%.

For the molecule `CCS(=O)(=O)c1ccc(CC(=O)Nc2ccc(OC3(c4ccc(Cl)cc4Cl)CCCCC3)cc2)cc1` [Example 134, N-(4-((1-(2,4-Dichlorophenyl)cyclohexyl)oxy)phenyl)-2-(4-(ethylsulfonyl)phenyl)acetamide], the IC50 was below 50 nM, the inhibition at 1 µM is 77.3% and the inhibition at 10 µM stood at 81.1%.

As to `CCS(=O)(=O)c1ccc(CC(=O)Nc2ccc(OC3(c4ccc(Cl)cc4Cl)CCCCC3)c(F)c2)cc1` [Example 135, N-(4-((1-(2,4-Dichlorophenyl)cyclohexyl)oxy)-3-fluorophenyl)-2-(4-(ethylsulfonyl)phenyl)acetamide], the IC50 was in the range of 50 to 100 nM, the inhibition at 1 µM came to 73.2% and the inhibition at 10 µM was determined as 77%.

Regarding `CCS(=O)(=O)c1ccc(CC(=O)Nc2ccc(OC3(c4ccc(Cl)cc4Cl)CCOCC3)c(F)c2)cc1` [Example 136, N-(4-((4-(2,4-Dichlorophenyl)tetrahydro-2H-pyran-4-yl)oxy)-3-fluorophenyl)-2-(4-(ethylsulfonyl)phenyl)acetamide], the IC50 is below 50 nM, the inhibition at 1 µM was found to be 71.6% and the inhibition at 10 µM was 79.3%.

With `CCS(=O)(=O)c1ccc(CC(=O)Nc2ccc(OC3(c4ccc(Cl)cc4Cl)CCCC3)c(F)c2)cc1` [Example 137, N-(4-((1-(2,4-Dichlorophenyl)cyclopentyl)oxy)-3-fluorophenyl)-2-(4-(ethylsulfonyl)phenyl)acetamide], the IC50 was below 50 nM, the inhibition at 1 µM amounted to 80% and the inhibition at 10 µM is 86.5%.
